Results from ChEMBL document CHEMBL3734741, “Pyrazole clubbed triazolo[1,5-a]pyrimidine hybrids as an anti-tubercular agents: Synthesis, in vitro screening and molecular docking study” (Bioorg Med Chem, 2015).
Values after ≈ are worked out from the molar mass of the structure shown.

Key:
[1] = system: Mycobacterium tuberculosis; assay: Antituberculosis activity against Mycobacterium tuberculosis H37Rv MTCC 300 at 6.25 ug/ml after 4 weeks by Lowenstein-Jensen medium method; format: functional; details: H37Rv MTCC 300, 672 h
[2] = system: Mycobacterium tuberculosis; assay: Antituberculosis activity against Mycobacterium tuberculosis H37Rv MTCC 300 after 4 weeks by Lowenstein-Jensen medium method; format: functional; details: H37Rv MTCC 300, 672 h
[3] = Selectivity index, ratio of CC50 for African green monkey Vero cells to IC50 Mycobacterium tuberculosis InhA; format: functional
[4] = Cytotoxicity against African green monkey Vero cells after 72 hrs by MTT assay; format: cell-based; details: chlorocebus sabaeus
[5] = Inhibition of Mycobacterium tuberculosis InhA assessed as conversion of crotonoyl-CoA to butyryl-CoA by spectrophotometric method

SMILES	inhibition at 6.25 µg/mL [1]	further results
Cc1ccc(-c2nn(-c3ccccc3)cc2C2C(C(=O)Nc3ccccn3)=C(C(C)C)Nc3ncnn32)cc1 (stereo not given)	55%	–
CC(C)C1=C(C(=O)Nc2ccc(Br)cn2)C(c2cn(-c3ccccc3)nc2-c2ccc([N+](=O)[O-])cc2)n2ncnc2N1 (stereo not given)	78%	–
CC[C@@H](CO)NCCN[C@@H](CC)CO [ETHAMBUTOL]	99%	MIC [2]: 3.12 µg/mL (≈ 15.3 µM)
CC(C)C1=C(C(=O)Nc2ccc(Br)cn2)C(c2cn(-c3ccccc3)nc2-c2ccc(Cl)cc2)n2ncnc2N1 (stereo not given)	84%	–
CC1=C(C(=O)Nc2ccc(C)cn2)C(c2cn(-c3ccccc3)nc2-c2ccc(Cl)cc2)n2ncnc2N1 (stereo not given)	79%	–
CC1=C(C(=O)Nc2ccc(C)cn2)C(c2cn(-c3ccccc3)nc2-c2ccc([N+](=O)[O-])cc2)n2ncnc2N1 (stereo not given)	68%	–
CC1=C(C(=O)Nc2ccccn2)C(c2cn(-c3ccccc3)nc2-c2ccc(F)cc2)n2ncnc2N1 (stereo not given)	99%	Ratio CC50/IC50 [3]: 125; MIC [2]: 0.78 µg/mL (≈ 1.58 µM); CC50 at 72 h [4]: 20 µg/mL (≈ 40.6 µM); IC50 [5]: 0.16 µg/mL (≈ 0.325 µM)
CC(C)C1=C(C(=O)Nc2ccc(Br)cn2)C(c2cn(-c3ccccc3)nc2-c2ccc(F)cc2)n2ncnc2N1 (stereo not given)	88%	–
Cc1ccc(-c2nn(-c3ccccc3)cc2C2C(C(=O)Nc3ccc(Br)cn3)=C(C(C)C)Nc3ncnn32)cc1 (stereo not given)	66%	–
Cc1ccc(NC(=O)C2=C(C(C)C)Nc3ncnn3C2c2cn(-c3ccccc3)nc2-c2ccc(F)cc2)nc1 (stereo not given)	82%	–
CC1=C(C(=O)Nc2ccc(C)cn2)C(c2cn(-c3ccccc3)nc2-c2ccc(C)cc2)n2ncnc2N1 (stereo not given)	49%	–
CC1=C(C(=O)Nc2ccccn2)C(c2cn(-c3ccccc3)nc2-c2ccccc2)n2ncnc2N1 (stereo not given)	72%	–
CC1=C(C(=O)Nc2ccc(Br)cn2)C(c2cn(-c3ccccc3)nc2-c2ccc([N+](=O)[O-])cc2)n2ncnc2N1 (stereo not given)	96%	Ratio CC50/IC50 [3]: 89.28; MIC [2]: 1.56 µg/mL (≈ 2.61 µM); CC50 at 72 h [4]: 25 µg/mL (≈ 41.8 µM); IC50 [5]: 0.28 µg/mL (≈ 0.468 µM)
CO[C@H]1/C=C/O[C@@]2(C)Oc3c(C)c(O)c4c(O)c(c(/C=N/N5CCN(C)CC5)c(O)c4c3C2=O)NC(=O)/C(C)=C\C=C\[C@H](C)[C@H](O)[C@@H](C)[C@@H](O)[C@@H](C)[C@H](OC(C)=O)[C@@H]1C [RIFAMPIN]	99%	MIC [2]: 0.5 µg/mL (≈ 0.608 µM)
CC1=C(C(=O)Nc2ccc(Br)cn2)C(c2cn(-c3ccccc3)nc2-c2ccc(F)cc2)n2ncnc2N1 (stereo not given)	99%	Ratio CC50/IC50 [3]: 181.81; MIC [2]: 0.39 µg/mL (≈ 0.683 µM); CC50 at 72 h [4]: 20 µg/mL (≈ 35 µM); IC50 [5]: 0.11 µg/mL (≈ 0.193 µM)
Cc1ccc(-c2nn(-c3ccccc3)cc2C2C(C(=O)Nc3ccc(C)cn3)=C(C(C)C)Nc3ncnn32)cc1 (stereo not given)	46%	–
CC(C)C1=C(C(=O)Nc2ccccn2)C(c2cn(-c3ccccc3)nc2-c2ccccc2)n2ncnc2N1 (stereo not given)	45%	–

SMILES	inhibition at 6.25 µg/mL [1]	further results
CC(C)C1=C(C(=O)Nc2ccc(Br)cn2)C(c2cn(-c3ccccc3)nc2-c2ccccc2)n2ncnc2N1 (stereo not given)	54%	–
NNC(=O)c1ccncc1 [ISONIAZID]	–	MIC [2]: 0.3 µg/mL (≈ 2.19 µM)
CC1=C(C(=O)Nc2ccccn2)C(c2cn(-c3ccccc3)nc2-c2ccc([N+](=O)[O-])cc2)n2ncnc2N1 (stereo not given)	84%	–
Cc1ccc(NC(=O)C2=C(C(C)C)Nc3ncnn3C2c2cn(-c3ccccc3)nc2-c2ccccc2)nc1 (stereo not given)	42%	–
CC(C)C1=C(C(=O)Nc2ccccn2)C(c2cn(-c3ccccc3)nc2-c2ccc([N+](=O)[O-])cc2)n2ncnc2N1 (stereo not given)	74%	–
CC1=C(C(=O)Nc2ccc(C)cn2)C(c2cn(-c3ccccc3)nc2-c2ccccc2)n2ncnc2N1 (stereo not given)	66%	–
Cc1ccc(NC(=O)C2=C(C(C)C)Nc3ncnn3C2c2cn(-c3ccccc3)nc2-c2ccc(Cl)cc2)nc1 (stereo not given)	76%	–
CC(C)C1=C(C(=O)Nc2ccccn2)C(c2cn(-c3ccccc3)nc2-c2ccc(F)cc2)n2ncnc2N1 (stereo not given)	84%	–
CC1=C(C(=O)Nc2ccccn2)C(c2cn(-c3ccccc3)nc2-c2ccc(Cl)cc2)n2ncnc2N1 (stereo not given)	84%	–
CC1=C(C(=O)Nc2ccccn2)C(c2cn(-c3ccccc3)nc2-c2ccc(C)cc2)n2ncnc2N1 (stereo not given)	56%	–
CC1=C(C(=O)Nc2ccc(Br)cn2)C(c2cn(-c3ccccc3)nc2-c2ccccc2)n2ncnc2N1 (stereo not given)	95%	Ratio CC50/IC50 [3]: 29.41; MIC [2]: 3.13 µg/mL (≈ 5.66 µM); CC50 at 72 h [4]: 25 µg/mL (≈ 45.2 µM); IC50 [5]: 0.85 µg/mL (≈ 1.54 µM)
CC1=C(C(=O)Nc2ccc(Br)cn2)C(c2cn(-c3ccccc3)nc2-c2ccc(Cl)cc2)n2ncnc2N1 (stereo not given)	98%	Ratio CC50/IC50 [3]: 181.81; MIC [2]: 0.78 µg/mL (≈ 1.33 µM); CC50 at 72 h [4]: 20 µg/mL (≈ 34 µM); IC50 [5]: 0.11 µg/mL (≈ 0.187 µM)
CC(C)C1=C(C(=O)Nc2ccccn2)C(c2cn(-c3ccccc3)nc2-c2ccc(Cl)cc2)n2ncnc2N1 (stereo not given)	81%	–
CC1=C(C(=O)Nc2ccc(C)cn2)C(c2cn(-c3ccccc3)nc2-c2ccc(F)cc2)n2ncnc2N1 (stereo not given)	86%	–
CC1=C(C(=O)Nc2ccc(Br)cn2)C(c2cn(-c3ccccc3)nc2-c2ccc(C)cc2)n2ncnc2N1 (stereo not given)	64%	–
Cc1ccc(NC(=O)C2=C(C(C)C)Nc3ncnn3C2c2cn(-c3ccccc3)nc2-c2ccc([N+](=O)[O-])cc2)nc1 (stereo not given)	68%	–
